Measured values taken from PubChem BioAssay (NCI).
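Dose response: 5 concentrations. Exposure: 48 h. Format: 96-well plates. Endpoint: linear interpolation; highest concentration if not reached. The concentration for 50% growth inhibition is given as GI50. TGI: total growth inhibition.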

What was measured:
Assay in all cases: inhibition of tumour cell growth, NCI panel, 48 h
786-0 renal = system: 786-0 renal
CCRF-CEM leukemia = system: CCRF-CEM leukemia
DU-145 prostate = system: DU-145 prostate
NCI-H226 lung = system: NCI-H226 lung
NCI-H460 lung = system: NCI-H460 lung
NCI/ADR-RES ovarian = system: NCI/ADR-RES ovarian
OVCAR-3 ovarian = system: OVCAR-3 ovarian
SNB-19 CNS = system: SNB-19 CNS
SW-620 colon = system: SW-620 colon
UACC-257 melanoma = system: UACC-257 melanoma

| SMILES | GI50 (786-0 renal) | TGI (786-0 renal) | GI50 (CCRF-CEM leukemia) | TGI (CCRF-CEM leukemia) | GI50 (DU-145 prostate) | TGI (DU-145 prostate) | GI50 (NCI-H226 lung) | TGI (NCI-H226 lung) | GI50 (NCI-H460 lung) | TGI (NCI-H460 lung) | GI50 (NCI/ADR-RES ovarian) | TGI (NCI/ADR-RES ovarian) | GI50 (OVCAR-3 ovarian) | TGI (OVCAR-3 ovarian) | GI50 (SNB-19 CNS) | TGI (SNB-19 CNS) | GI50 (SW-620 colon) | TGI (SW-620 colon) | GI50 (UACC-257 melanoma) | TGI (UACC-257 melanoma) |
| --- | --- | --- | --- | --- | --- | --- | --- | --- | --- | --- | --- | --- | --- | --- | --- | --- | --- | --- | --- | --- |
| COc1ccc(OC)c2c1[nH]c(=O)c1c3ncccc3cn21 | 5.44 µM | > 100 µM | 3.32 µM | > 100 µM | 3.45 µM | 14.7 µM | 2.41 µM | > 100 µM | 1.61 µM | 3.39 µM | 2.56 µM | > 100 µM | 4.54 µM | 18.4 µM | 5.6 µM | > 100 µM | 1.55 µM | 5.38 µM | 5.05 µM | > 100 µM |
| COc1cc(Nc2nc3ccccc3cc2C(=O)Nc2ccc(F)c(F)c2)cc(OC)c1OC | 3.38 µM | > 100 µM | 3.12 µM | > 100 µM | 4.25 µM | > 100 µM | 2.55 µM | 7.93 µM | 3.11 µM | > 100 µM | 2.49 µM | 7.21 µM | 2.56 µM | 6.96 µM | 3.55 µM | > 100 µM | 3.53 µM | > 100 µM | 2.6 µM | 6.28 µM |
| CC(C)(C)[Si](C)(C)OC1[C@@H](O[Si](C)(C)C(C)(C)C)[C@@H](CNC(=O)NC(=O)CCl)O[C@H]1n1cnc2c(NC(=O)Nc3ccccc3)ncnc21 (stereo partly drawn) | 0.31 µM | 0.633 µM | 0.0441 µM | 0.125 µM | 1.73 µM | 5.32 µM | 0.651 µM | 1.3 µM | 0.859 µM | 1.74 µM | 1.24 µM | 8.03 µM | 0.446 µM | 1.49 µM | 1.11 µM | 3.96 µM | 0.441 µM | 1.36 µM | 0.884 µM | 1.89 µM |
| COc1ccc(C(=O)c2cc3c(N)c(C(=O)Nc4ccc(C)cc4)sc3nc2C)cc1 | 4.48 µM | 19.1 µM | 3.76 µM | > 100 µM | 3.63 µM | 27.4 µM | 4.22 µM | 30.8 µM | 2.99 µM | 14.2 µM | 2.55 µM | 15.4 µM | 2.25 µM | 7.18 µM | 4.22 µM | 30.9 µM | 3.61 µM | > 100 µM | 20.4 µM | > 100 µM |
| O=C1/C(=C\c2ccccn2)c2ccccc2N1c1c(Cl)cccc1Cl | 1.84 µM | 3.49 µM | 3.31 µM | > 100 µM | 1.94 µM | 3.95 µM | 1.7 µM | 3.42 µM | 1.88 µM | 3.65 µM | 2.51 µM | 6.95 µM | 1.66 µM | 3.25 µM | 2.28 µM | 6.25 µM | 1.89 µM | 3.69 µM | 2.2 µM | 6.19 µM |
| O=Cc1ccc(-c2ccc(-c3nc4ccccc4o3)cc2)o1 | 24.4 µM | 92.8 µM | > 100 µM | > 100 µM | 50.1 µM | > 100 µM | 17.9 µM | > 100 µM | 39.6 µM | > 100 µM | 18.3 µM | 63.8 µM | 24.1 µM | 61.9 µM | > 100 µM | > 100 µM | 33 µM | > 100 µM | 92.3 µM | > 100 µM |
| Nc1ccn(C2OC(COC(=O)C34CC5CC(CC(C5)C3)C4)C(O)C2O)c(=O)n1 (stereo not drawn) |  | > 100 µM |  | 1.87 µM |  | > 100 µM |  | > 100 µM |  | > 40.8 µM |  | > 100 µM |  | > 100 µM |  | > 100 µM |  | > 100 µM |  | > 100 µM |
| C=C(Nc1ccc([N+](=O)[O-])cc1[N+](=O)[O-])c1c/c(=N\NC(N)=S)c2ccccc2o1 |  | > 100 µM |  | > 100 µM |  | > 100 µM |  | > 100 µM |  | > 100 µM |  | > 100 µM |  | 86.1 µM |  | > 100 µM |  | > 100 µM |  | > 100 µM |
| Cc1nc(N2CCC3(CC2)CO[C@@H](C)[C@H]3N)c(CO)nc1Sc1ccnc(N)c1Cl | 12.8 µM | > 100 µM | > 91.3 µM | > 100 µM | 45.3 µM | > 100 µM | 2.14 µM | > 100 µM | > 100 µM | > 100 µM | 47.3 µM | > 100 µM | > 85.3 µM | > 100 µM | 14.8 µM | > 100 µM | > 100 µM | > 100 µM | > 90.4 µM | > 100 µM |
| COc1cccc(NC(=O)c2sc3nc4c(cc3c2N)C(=O)CCC4)c1 | 0.366 µM | > 100 µM | 0.0893 µM | > 100 µM | 0.231 µM | > 100 µM | 2.18 µM | > 100 µM | 0.0953 µM | > 100 µM | 0.102 µM | > 45.9 µM | 0.0612 µM | 0.653 µM | 1.72 µM | > 100 µM | 0.0571 µM | > 100 µM |  |  |
| CCCCCCCCCCCCCCCCCC(=O)OCC(COC(=O)CCCN)OC(=O)CCCN (stereo not drawn) |  | 34.3 µM |  | > 100 µM |  | 33.7 µM |  | 44.4 µM |  | 30.7 µM |  | 37 µM |  | 35.3 µM |  | 48 µM |  | 38.2 µM |  | 34.4 µM |
| NC(=O)c1cccc(Nc2nccc(Nc3cccc4[nH]ncc34)n2)c1 | 10.8 µM | > 25 µM | 9.14 µM | > 25 µM | 9.7 µM | > 25 µM | 5.52 µM | > 20.1 µM | 9.05 µM | > 25 µM | > 25 µM | > 25 µM | 8.31 µM | 24.6 µM | 12.7 µM | > 25 µM | 9.09 µM | > 25 µM | > 19.2 µM | > 25 µM |
| CN1C(=O)N[C@H]2[C@@H]3NC(=O)c4ccc(Br)n4[C@@H]3C[C@]21O | 0.223 µM | 1.82 µM | 0.0252 µM | 0.327 µM | 0.121 µM | 2.8 µM | 0.212 µM | 2.64 µM | 0.0403 µM | 1.5 µM | 0.386 µM | 2.22 µM | 0.121 µM | 1.85 µM | 0.0351 µM | 0.576 µM | 0.116 µM | 12.5 µM | 0.108 µM | 1.52 µM |
